The results in this text go back to patent US20250230193A1, “CYCLIC COMPOUND HAVING SELECTIVE KRAS INHIBITORY EFFECT ON HRAS AND NRAS” (CHUGAI SEIYAKU KABUSHIKI KAISHA, priority 2022, published 2025).

*1 amine or outer side, *2 acyl side, *3 side chain or, on linkers, in order; H or OH if unused. Where a SMILES comes first, the peptide text is derived from it. Bridges are numbered along the chain shown (N, C = ends). [ ]: non-standard residue; d: D form. The star is where a group is joined. hPhe(3-Cl-4-CF3) = N[C@@H](CCc1ccc(C(F)(F)F)c(Cl)c1)C(=O)O; NPrPhe(4-CF3) = CCCN[C@@H](Cc1ccc(C(F)(F)F)cc1)C(=O)O; NEtAsp = CCN([C@@H](CC(=O)[*:3])C(=O)[*:2])[*:1]; X30 = CCN([C@H](C(=O)[*:2])C1CCCC1)[*:1]; NMeGly(cPent) = CN[C@H](C(=O)O)C1CCCC1; NMeD = CN[C@@H](CC(=O)O)C(=O)O; NMeL = CN[C@@H](CC(C)C)C(=O)O; NMeNva = CCC[C@H](NC)C(=O)O; Morpholide = C1CN(*)CCO1; Ac4c = NC1(C(=O)O)CCC1; NPrGly = CCCNCC(=O)O; NEtG = CCNCC(=O)O; Sar = CNCC(=O)O

The target in experiment [1] is GDP-bound NRAS wild-type protein (Homo sapiens, UniProt P01111). Nature of the experiment: Binding to NRAS by surface plasmon resonance (SPR), Single Cycle Kinetics. The settings on record: KD ratio, GDP-bound NRAS wild-type vs GDP-bound KRAS wild-type, SPR.
GDP-bound NRAS wild-type protein, sequence (P01111 whole entry): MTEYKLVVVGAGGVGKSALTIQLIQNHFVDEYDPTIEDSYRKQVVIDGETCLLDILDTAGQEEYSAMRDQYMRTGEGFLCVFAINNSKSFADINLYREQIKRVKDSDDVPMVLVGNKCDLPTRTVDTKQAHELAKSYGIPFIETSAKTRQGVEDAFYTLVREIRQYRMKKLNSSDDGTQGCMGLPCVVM
Experiment [2] has as its target GDP-bound HRAS wild-type protein (Homo sapiens, UniProt P01112). Nature of the experiment: Binding to HRAS by surface plasmon resonance (SPR), Single Cycle Kinetics. Conditions: KD ratio, GDP-bound HRAS wild-type vs GDP-bound KRAS wild-type, SPR. In general terms: SPR reads the build-up and loss of mass on a sensor chip optically.

GDP-bound HRAS wild-type protein, sequence (P01112 whole entry): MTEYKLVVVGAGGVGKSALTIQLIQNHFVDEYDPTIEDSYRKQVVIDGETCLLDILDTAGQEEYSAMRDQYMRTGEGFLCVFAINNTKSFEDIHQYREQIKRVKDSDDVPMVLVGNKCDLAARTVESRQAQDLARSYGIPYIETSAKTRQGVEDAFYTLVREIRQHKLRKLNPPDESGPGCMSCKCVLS

As to `CCCN1C(=O)CN(CC)C(=O)CN(C)C(=O)[C@H]([C@@H](C)CC)NC(=O)[C@H](CC(C)C)N(C)C(=O)C[C@@H](C(=O)N2CCOCC2)N(C)C(=O)[C@H](C2CCCC2)N(C)C(=O)C2(CCC2)NC(=O)[C@@H]2CCCN2C(=O)[C@H](CCc2ccc(C(F)(F)F)c(Cl)c2)NC(=O)CN(C)C(=O)[C@@H]1Cc1ccc(C(F)(F)F)cc1` [PP1948] ([NMeL]I[Sar][NEtG][NPrPhe(4-CF3)][Sar][hPhe(3-Cl-4-CF3)]P[Ac4c][NMeGly(cPent)][NMeD]-Morpholide; lactam N-11), in experiment [1], the “NRAS/KRAS (ratio of KD value for NRAS to KD value for KRAS)” value was “C (A compound having a KD ratio of 0.1 or more and less than 3 is denoted as C)”. Moreover, the “HRAS/KRAS (ratio of KD value for HRAS to KD value for KRAS)” value in experiment [2] is “C (A compound having a KD ratio of 0.1 or more and less than 3 is denoted as C)”.

Consider `CCC[C@H]1C(=O)N[C@@H]([C@@H](C)CC)C(=O)N(C)CC(=O)N(CCC)CC(=O)N(CCC)[C@@H](Cc2ccc(C(F)(F)F)cc2)C(=O)N(C)CC(=O)N[C@@H](CCc2ccc(C(F)(F)F)c(Cl)c2)C(=O)N2CCC[C@H]2C(=O)NC2(CCC2)C(=O)N(C)[C@@H](C2CCCC2)C(=O)N(C)[C@H](C(=O)N2CCOCC2)CC(=O)N1C` [PP1949] ([NMeNva]I[Sar][NPrGly][NPrPhe(4-CF3)][Sar][hPhe(3-Cl-4-CF3)]P[Ac4c][NMeGly(cPent)][NMeD]-Morpholide; lactam N-11), for which, in experiment [1], the “NRAS/KRAS (ratio of KD value for NRAS to KD value for KRAS)” value is “C (A compound having a KD ratio of 0.1 or more and less than 3 is denoted as C)”. The “HRAS/KRAS (ratio of KD value for HRAS to KD value for KRAS)” value in experiment [2] is “C (A compound having a KD ratio of 0.1 or more and less than 3 is denoted as C)”.

With `CCCN1C(=O)CN(C)C(=O)CN(C)C(=O)[C@H]([C@@H](C)CC)NC(=O)[C@H](CC(C)C)N(C)C(=O)C[C@@H](C(=O)N2CCOCC2)N(C)C(=O)[C@H](C2CCCC2)N(C)C(=O)C2(CCC2)NC(=O)[C@@H]2CCCN2C(=O)[C@H](CCc2ccc(C(F)(F)F)c(Cl)c2)NC(=O)CN(CC)C(=O)[C@@H]1Cc1ccc(C(F)(F)F)cc1` [PP1950] ([NMeL]I[Sar][Sar][NPrPhe(4-CF3)][NEtG][hPhe(3-Cl-4-CF3)]P[Ac4c][NMeGly(cPent)][NMeD]-Morpholide; lactam N-11), the “NRAS/KRAS (ratio of KD value for NRAS to KD value for KRAS)” value in experiment [1] was “B (a compound having 3 or more and less than 10 is denoted as B)”. Moreover, the “HRAS/KRAS (ratio of KD value for HRAS to KD value for KRAS)” value in experiment [2] is “C (A compound having a KD ratio of 0.1 or more and less than 3 is denoted as C)”.

As to `CCCN1C(=O)CN(C)C(=O)CN(C)C(=O)[C@H]([C@@H](C)CC)NC(=O)[C@H](CC(C)C)N(C)C(=O)C[C@@H](C(=O)N2CCOCC2)N(C)C(=O)[C@H](C2CCCC2)N(CC)C(=O)C2(CCC2)NC(=O)[C@@H]2CCCN2C(=O)[C@H](CCc2ccc(C(F)(F)F)c(Cl)c2)NC(=O)CN(C)C(=O)[C@@H]1Cc1ccc(C(F)(F)F)cc1` [PP1952] ([NMeL]I[Sar][Sar][NPrPhe(4-CF3)][Sar][hPhe(3-Cl-4-CF3)]P[Ac4c][X30][NMeD]-Morpholide; lactam N-11), the “NRAS/KRAS (ratio of KD value for NRAS to KD value for KRAS)” value in experiment [1] was “B (a compound having 3 or more and less than 10 is denoted as B)”. Further, in experiment [2], the “HRAS/KRAS (ratio of KD value for HRAS to KD value for KRAS)” value was “B (a compound having 3 or more and less than 10 is denoted as B)”.

As to `CCCN1C(=O)CN(C)C(=O)CN(C)C(=O)[C@H]([C@@H](C)CC)NC(=O)[C@H](CC(C)C)N(C)C(=O)C[C@@H](C(=O)N2CCOCC2)N(CC)C(=O)[C@H](C2CCCC2)N(C)C(=O)C2(CCC2)NC(=O)[C@@H]2CCCN2C(=O)[C@H](CCc2ccc(C(F)(F)F)c(Cl)c2)NC(=O)CN(C)C(=O)[C@@H]1Cc1ccc(C(F)(F)F)cc1` [PP1953] ([NMeL]I[Sar][Sar][NPrPhe(4-CF3)][Sar][hPhe(3-Cl-4-CF3)]P[Ac4c][NMeGly(cPent)][NEtAsp]-Morpholide; lactam N-11), in experiment [1], the “NRAS/KRAS (ratio of KD value for NRAS to KD value for KRAS)” value was “B (a compound having 3 or more and less than 10 is denoted as B)”. Further, the “HRAS/KRAS (ratio of KD value for HRAS to KD value for KRAS)” value in experiment [2] is “B (a compound having 3 or more and less than 10 is denoted as B)”.
